# Measurements as given in paper PMC9535023, “Inhibition of phospholipase D1 induces immunogenic cell death and potentiates cancer immunotherapy in colorectal cancer” (Experimental & Molecular Medicine, 2022).
# Like-named read-outs stand apart in the source and are kept apart here.
# Assays:
# PLD = PLD activity assay in HCT 116 cells; format: cell-based; settings: at 10 μM (Fig. 1c)
# Protocol: (§1) Cells were labeled with [H^3] myristic acid, and PLD activity was assessed by measuring the formation of [H^3] phosphatidylbutanol, which is the product of PLD-mediated transphosphatidylation, in the presence of 1-butanol, as previously described.
# PLD2 = target: T1, PLD2 (Mus musculus, UniProt P97813); assay: PLD2 activity in Pld1−/− MEFs; format: cell-based
# T1 construct: endogenous in cells; host or cells: immortalized Pld1-/- mouse embryonic fibroblasts
# T1 sequence (P97813 whole entry): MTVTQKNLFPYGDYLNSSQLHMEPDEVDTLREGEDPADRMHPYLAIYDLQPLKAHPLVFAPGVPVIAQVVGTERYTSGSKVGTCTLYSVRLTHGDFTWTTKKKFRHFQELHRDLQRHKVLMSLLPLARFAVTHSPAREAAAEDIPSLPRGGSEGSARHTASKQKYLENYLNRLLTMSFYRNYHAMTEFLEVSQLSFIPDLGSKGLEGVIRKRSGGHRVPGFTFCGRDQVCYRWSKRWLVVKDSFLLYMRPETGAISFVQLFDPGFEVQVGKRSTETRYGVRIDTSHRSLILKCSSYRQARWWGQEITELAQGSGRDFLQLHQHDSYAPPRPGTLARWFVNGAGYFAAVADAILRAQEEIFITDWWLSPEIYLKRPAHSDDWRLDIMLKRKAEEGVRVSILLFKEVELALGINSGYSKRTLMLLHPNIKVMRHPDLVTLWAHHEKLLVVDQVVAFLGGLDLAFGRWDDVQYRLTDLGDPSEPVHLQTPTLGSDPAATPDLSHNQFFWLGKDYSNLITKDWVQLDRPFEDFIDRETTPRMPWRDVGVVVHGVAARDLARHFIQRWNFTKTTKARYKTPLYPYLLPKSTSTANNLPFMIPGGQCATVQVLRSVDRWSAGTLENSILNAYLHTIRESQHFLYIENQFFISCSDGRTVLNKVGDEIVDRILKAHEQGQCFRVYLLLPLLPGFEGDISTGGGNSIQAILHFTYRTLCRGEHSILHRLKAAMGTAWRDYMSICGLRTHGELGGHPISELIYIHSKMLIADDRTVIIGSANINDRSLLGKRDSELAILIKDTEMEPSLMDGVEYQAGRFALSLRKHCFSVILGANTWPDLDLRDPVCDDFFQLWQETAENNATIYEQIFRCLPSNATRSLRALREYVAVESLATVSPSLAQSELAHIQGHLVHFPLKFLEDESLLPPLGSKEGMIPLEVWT
# Protocol: as §1
# We further investigated the effect of A3373 on the enzymatic inhibition of PLD1 and PLD2 in Pld^+/+, Pld1^−/−, and Pld2^−/− MEFs. […] Kinase profiling was used to evaluate the general selectivity of the lead compounds. […] To further investigate whether inhibition of PLD1 by A3373 occurs by binding to PLD1, we first modified A3373 by adding biotinylation instead of the F present in its structure and measured PLD activity.
# In vivo pharmacokinetics = assay: In vivo pharmacokinetics; parameters: species or system mouse; AUCinf: unit not given here; settings: for half-life: read-out: t1/2 (terminal half-life) (converted)
# Protocol: Supplementary Table 4. Plasma pharmacokinetics of A3373
# The pharmacokinetic parameters were estimated with non-compartmental analysis using
# PKSolver, based on the concentration- time profiles of A3373 in the plasma samples following
# single IV (5 mg/kg) and PO (10 mg/kg) dose in mice (n=3). Abbreviations: T1 /2, elimination
# half life; Tmax, time to peak concentration; AUC, area under the concentration–time curve;
# MRT, mean residence ti me; Vz, the volume in the terminal state; CL, clearance; Vss, steady-
# state volume of distribution; F, absolute bioavailability. […]
# Male ICR mice (8 weeks old, 30~35 g) were accli mated to the testing facility in a temperature
# and humidity controlled condition for approximately a week prior to the study. 1 mg/mL of
# A3373 solution in dimethylacetamide/tween 80/saline (10/10/80 vol%) was dosed orally (10
# mg/kg in a volume of 10 mL/kg) or by tail vein injection (5 mg/kg in a volume of 5 mL/kg) to
# the animals. About 40 μL of blood samples were collected in BD Microtainer plasma s eparator
# tubes at selected times through the saphenous vein over 24 hour s post-dosing. Blood samples
# were centrifuged at 6,000 x g for 5 minutes to separat e plasma and stored in a freezer until
# analyzed. Protein precipitation was conduct ed on 15 μL aliquot of plas ma samples with 3
# volumes of acetonitrile containing glipizide as analytical internal standard. After centrifugation,
# the supernatant was analyzed by Agilent 6460 QQQ LC-MS/MS system in a negative MRM
# mode. Briefly, chromatography was performed on a Phenomenex Kinetex C18 column (2.1 ×
# 50 mm, 2.6 μm) with a linear gradient of the mobil e phases 10 mM aqu eous ammonium acetate
# and acetonitrile. […]
# HCT116 cells [1] = assay: Flow cytometry of do not eat-me signals and calreticulin; format: cell-based
# HCT116 cells [2] = assay: miR-4496 promoter and β-catenin 3′-UTR luciferase reporters; format: cell-based
# β-catenin/TCF-4 complex = assay: Immunoprecipitation of β-catenin/TCF-4; format: cell-based; settings: 2 μM, 12 h, CRC cells
# Protocol: As previously described, lysates from cells or colorectal cancer (CRC) tissues were analyzed by immunoprecipitation, and/or Western blotting was performed as described previously. The antibodies used are listed in Supplementary Table 5. A polyclonal anti-PLD antibody that recognizes both PLD1 and PLD2 was generated, as previously described. The use of human CRC tissue samples was approved by the Institutional Review Board of Pusan National University, Korea (PNU IRB/2011-6).
# MC38 cells = assay: MC38 syngeneic tumor model; format: in vivo, mouse
# Protocol: manner. The incision was extended to 2–3 cm, and the cecum was exposed. 2 × 10^5 MC38-GFP-Luciferas e cells were suspended in 50 µL PBS and injected into the cecum. Seven days after cell injection, 10 mg/kg A3373 was orally administered to the mice daily for 4 weeks.
# A colon can cer syngenei c model was established using 6- weeks-old C57B L/6 male mice. 2 × 10^5 MC38 cells were suspended in 50µ l PBS and subcutaneously injected into the flanks of the mice. After 7 days of cell injection, mice were randomized into four groups and all groups were treated as follows for 2 weeks: vehicle grou p, mice were IP administered vehicle every day; A3373 group, mice were IP administrated with 10 mg/kg A3373 every day; α PD-L1 antibody group, mice were IP administrated with 5 mg/kg anti-mouse PD-L1 (BioXcell) eve ry two days; A3373 + αPD-L1 antibody group, mice received A3373 (10 mg/kg) daily with anti - mouse PD-L1 (5 mg/kg) every 2 days. Tumor volume was measured in MC38 cells subcutaneous injected mice every 2 days after 7 days of cell injection. External tumor measurements were made using precision calipers, and tumor volume (TV) was calcul ated according to the following formula: TV = (W × L2)/2 (W = width and L = l ength).
# . All animal procedu res were performed in accordance with the institutional guidelines for animal research and were approved by the Institutional Animal Care and Use Committee of Yonsei University (IACUC- […]
# In a colon cancer orthotropic model, tumor-infiltrating lymphocytes (TILs) were isolated from the tumor tissue 30 days after cell injection. […]
# After 20 minutes of incubation, 0.1 M EDTA was added to prevent clumping. Cells were filtered through a 40 µm nylon mesh, single-cell suspensions were counted and used for the experiments. […] Isolated tumor cells were cultured for one passage to change the immunocompromised phenotype and assessed using flow cytometry. […]
# [3] = male, ICR, mouse, plasma, IV 5 mg/kg, mice
# [4] = male, ICR, mouse, plasma, PO 10 mg/kg, mice
structure (smiles),measurement,setting,value
O=C(Nc1cc(C(F)(F)F)cc(C(F)(F)F)c1)c1cc2cc(F)ccc2[nH]1 [Compound A3373],PLD activity remained,PLD,20.6%
same,"PLD2 activity, in words","PLD2; 2 μM, Pld−/− MEFs",not PLD2 activity
same,IC50,PLD2; Pld1−/− MEFs,15.1 µM
same,t1/2 (terminal half-life),"In vivo pharmacokinetics; IV 5 mg/kg, mice, 5 mg/kg",3.2 h
same,AUCinf,"In vivo pharmacokinetics; PO 10 mg/kg, male ICR mice","13,647.5 ± 1506.9"
same,Tmax,"In vivo pharmacokinetics; PO 10 mg/kg, male ICR mice",0.5 h
same,Vd,"In vivo pharmacokinetics; male, ICR, mouse, plasma, iv, 5 mg/kg, IV 5 mg/kg, mice, read-out: Vss (steady state volume)",2.1 ± 0.1 L/kg
same,Vd,"In vivo pharmacokinetics; male, ICR, mouse, plasma, iv, 5 mg/kg, IV 5 mg/kg, mice, read-out: Vz",3.7 L/kg
same,half-life,"In vivo pharmacokinetics; male, ICR, mouse, plasma, iv, 5 mg/kg, IV 5 mg/kg, mice",~3.2 h
same,half-life,"In vivo pharmacokinetics; male, ICR, mouse, plasma, po, 10 mg/kg, PO 10 mg/kg, mice",3.8 h
same,AUC(0-inf),In vivo pharmacokinetics; [3],6320 ng·h/mL
same,AUC(0-t),In vivo pharmacokinetics; [3],6300 ng·h/mL
same,MRT,In vivo pharmacokinetics; [3],2.6 h
same,clearance,"In vivo pharmacokinetics; male, ICR, mouse, plasma, IV 5 mg/kg, mice, read-out: CL (clearance) (converted)",13.3 mL/min/kg
same,bioavailability,"In vivo pharmacokinetics; male, ICR, mouse, plasma, PO 10 mg/kg vs IV 5 mg/kg, mice, read-out: F (oral bioavailability)",108%
same,AUC(0-inf),In vivo pharmacokinetics; [4],13600 ng·h/mL
same,AUC(0-t),In vivo pharmacokinetics; [4],13500 ng·h/mL
same,MRT,In vivo pharmacokinetics; [4],5.6 h
same,Tmax,"In vivo pharmacokinetics; male, ICR, mouse, plasma, PO 10 mg/kg, mice, read-out: tmax",0.5 h
same,Cmax,"In vivo pharmacokinetics; mouse, plasma, PO 10 mg/kg, male ICR mice",2630 ± 183 ng/mL
same,"cell-surface CRT expression, in words",HCT116 cells [1],increased cell-surface CRT expression
same,"levels of do not eat-me signals, in words","HCT116 cells [1]; CRC cells, flow cytometry",significantly reduced the levels of the “do not eat-me” signals
same,luciferase activity of the β-catenin 3′-UTR reporter,HCT116 cells [2],significantly suppressed the luciferase activity
same,promoter activity of miR-4496,HCT116 cells [2],increased the promoter activity of miR-4496
same,endogenous interaction between β-catenin and TCF-4,β-catenin/TCF-4 complex,disrupted the endogenous interaction between β-catenin and TCF-4
same,tumor formation,MC38 cells; A3373 10 mg/kg and/or αPD-L1,significantly decreased tumor formation
same,"CD8+ T-cell-mediated killing of MC38-GFP-Luc cells, luciferase activity","MC38 cells; CD8+ T cells from treated tumor-bearing mice, increasing E/T ratio",significant reduction in luciferase activity
same,percentage of immune cells (CD45+ cells) in total cells,"MC38 cells; tumors at maximum volume, flow cytometry, vehicle ~20%",~50%
